# Assay results as given in patent US20120202801A1, “METHODS FOR TREATING BREAST CANCER” (priority 2009, published 2012).
# Marks after values point to notes of the source that are not given here.
# What was measured:
# HT1080 cells = assay: Cell cycle analysis by propidium iodide flow cytometry in HT1080 cells (% cells in S-phase); type: cell-based, human; details: for % Cells In S-Phase: HT1080 cells, 100 nM, 18 hours, normoxic, DMSO control 17.3
# Protocol: Experimental Design. […] After treatment, cells were trypsinized, and stained with propidium iodide (PI) dye to measure DNA content of individual cells by flow cytometry. Output comprised histograms showing relative DNA content in 10,000 cells.
# While compounds which cause greater than 20% of the cells to accumulate in S-phase at 100 nM are considered active, a larger percentage of cells may be accumulated in S-phase at lower doses depending on the Compound, as shown in FIG. 12 for example.
# HT1080 xenografts [1] = assay: HT1080 xenograft tumor growth, Compound 1205, 1330 and Compound #10 (studies 21-24b); type: in vivo, mice
# Source text: Experimental Design. HT1080 cells (5×10^6 cells/mouse) were implanted subcutaneously in male athymic nude mice. […] For comparison, Compound #10 was included in this study.
# [2] = test system: human VEGF121 and VEGF165; assay: Intra-tumor and pathologic plasma human VEGF in HT1080 xenografts, Compound 1205 (studies #21, #23); type: in vivo, mice
# Source text: Experimental Design. HT1080 cells (5×10^6 cells/mice) were implanted subcutaneously into male athymic nude mice. Treatment with vehicle alone or Compound 1205 was initiated when the median tumor volume was approximately 311±88 mm^3. Table 7 and Table 9 (study design #21 and #23) provide the study design for assessing tumor and plasma pathologic VEGF concentrations—each group in each study included eight (8) mice. When the tumors in vehicle-treated mice had reached the target size of ˜1200 mm^3 for study #21 and ˜1500 mm^3 for study #23, all mice in the study were sacrificed, and excised tumors were homogenized in buffer containing protease inhibitors. Both intra-tumor and pathologic plasma human VEGF levels were measured using an ELISA that recognizes human VEGF121 and VEGF165. Intra-tumor VEGF levels were normalized to the total tumor protein concentration and pathologic plasma VEGF levels were expressed in pg/mL. Because smaller tumors produce less VEGF per mg of tumor protein, intra-tumor VEGF levels were normalized to tumor size.
# MCF-7p xenografts [3] = assay: Aggressive MCF-7p estrogen-sensitive breast cancer xenograft, combination with paclitaxel; type: in vivo, mice
# Protocol: (§1) Experimental Design. Aggressively growing, estrogen-sensitive MCF 7 breast cancer cells (hereafter referred to as MCF-7p) were passaged in vivo prior to use to generate a more aggressive cell line. Tumors were excised from donor mice, passed through a sterile mesh, and suspended in 0.9% sodium chloride, and 20 mg of this suspension was mixed 1:1 with Matrigel™. These tumor fragments were implanted subcutaneously into female athymic nude mice bearing estrogen pellets (0.72 mg/pellet) that had been inserted 2 days previously. After 28 days, when the tumors had become established and grown to a substantial size (i.e., the mean tumor size had reached ˜430 mm^3), mice were divided into 4 groups, and treatment was administered as shown in Table 30.
# Tumor size was measured by calipers at periodic intervals during the study. After tumors in a given group had reached an average size of ˜1500 mm^3, the mice in that group were sacrificed; after 72 days of treatment, any remaining groups were taken off study.
# MCF-7 xenografts = assay: MCF-7 estrogen-sensitive breast cancer xenograft, combination with tamoxifen; type: in vivo, mice
# Protocol: Experimental Design. […] Estrogen pellets (0.72 mg/pellet) were implanted in the mice 9 days prior to cell implantation.
# Tumor size was measured by calipers at periodic intervals during the study. After 42 days of treatment, the mice were sacrificed.
# MCF-7p xenografts [4] = assay: Aggressive MCF-7p estrogen-sensitive breast cancer xenograft, combination with tamoxifen; type: in vivo, mice
# Protocol: as §1, with “Aggressively” for “Experimental Design. Aggressively”, “˜435” for “˜430”, “34.” for “30.”
# Tumor size was measured by calipers at periodic intervals during the study. When the mean tumor size in a group had reached 1500 mm^3, or after 72 days of treatment, the mice in the group were sacrificed.
# HT1080 xenografts [5] = assay: BrdU labeling of tumor cells from HT1080 xenografts in vivo; design: species or system mice; details: 1, 2, or 3 days of treatment
# Protocol: (§2) Experimental Design. HT1080 cells (5×10^6 cells/mouse) were implanted subcutaneously in male athymic nude mice.
# The mice were sacrificed 3 hours later, and the tumors collected. A single cell suspension was prepared from the tumor cells. The cells were permeabilized and an antibody to BrdU was used to stain cells that had entered S phase during the labeling period. The proportion of cells actively synthesizing DNA was determined by cell sorting.
# HT1080 xenografts [6] = assay: Time course of tumor size and plasma human VEGF in HT1080 xenografts; type: in vivo, mice; details: by Day 1
# Protocol: as §2
# Tumor size was measured by calipers immediately pre-treatment and at the time of sacrifice on Day 1, 2, or 3 (5 mice per group per day). At sacrifice, the plasma was collected for assay of pathologic human VEGF concentration using an ELISA that recognizes human VEGF121 and VEGF165 (as described in Section 9.1.1.1).
# [7] = test system: aromatase-overexpressing MCF-7 xenografts; assay: Aromatase-overexpressing MCF-7 breast cancer xenograft, combination with letrozole; type: in vivo, mice; details: for Mean % Inhibition of Tumor Size vs Vehicle at Day 42 / Proportion Cured: aromatase-overexpressing MCF-7 xenografts, nude mice
# Protocol: Experimental Design. Aromatase-overexpressing, estrogen-sensitive MCF-7 cells (7.0×10^6 cells/mouse) were implanted subcutaneously in ovariectomized female athymic nude mice. Androstenedione pellets (6 mg/pellet) were implanted 1 day prior to cell implantation.
# Tumor size was measured by calipers at periodic intervals during the study. When the individual tumor size in a mouse exceeded 1500 mm^3, or after 98 days of treatment, that mouse was sacrificed.
# [8] = Paclitaxel alone, 10 mg/kg IV Days 2, 5, 9, 12, 15, nude mice
# [9] = 42 days of treatment, combination = Compound #10 with tamoxifen
# [10] = Tamoxifen alone, 10 mg/kg QD, nude mice
# [11] = Tamoxifen alone, 8 mg/kg Oral QD, nude mice
# [12] = Letrozole (high-dose), 30 μg/mouse Oral QD
# [13] = Letrozole (low-dose), 10 μg/mouse Oral QD
structure (smiles),measurement,setting,value
O=C(Oc1ccc(Cl)cc1)N1CCc2c([nH]c3ccc(Cl)cc23)C1c1ccc(OCCN2CCCCC2)cc1 (centres unmarked),% Cells In S-Phase,HT1080 cells,16.8%
O=C(Oc1ccc(Cl)cc1)N1CCc2c([nH]c3ccc(Cl)cc23)[C@@H]1c1ccc(OCC[C@H](O)CO)cc1 [Compound 1205],Final mean terminal tumor size in treatment group,HT1080 xenografts [1]; Study 21: 3 mg/kg QD,379 mm^3
same,Final mean terminal tumor size in treatment group,HT1080 xenografts [1]; Study 22: 0.5 mg/kg QD,1750 mm^3
same,Difference vs. vehicle in median number of days to reach 1000 mm^3,HT1080 xenografts [1]; Study 22: 3 mg/kg QD,14** Days
same,Final mean terminal tumor size in treatment group,HT1080 xenografts [1]; Study 22: 3 mg/kg QD,1840 mm^3
same,Difference vs. vehicle in median number of days to reach 1000 mm^3,HT1080 xenografts [1]; Study 24a: 10 mg/kg QD,14** Days
same,Mean difference in tumor growth rate at the Day that the vehicle-treated tumors taken off study (%),"HT1080 xenografts [1]; Study 24a: 10 mg/kg QD, Day 11",76%**
same,Difference vs. vehicle in median number of days to reach 1000 mm^3,HT1080 xenografts [1]; Study 24b: 0.3 mg/kg QD,0.7 days
same,Final mean terminal tumor size in treatment group,HT1080 xenografts [1]; Study 24b: 0.3 mg/kg QD,1540 mm^3
same,inhibition of both tumor and pathologic plasma human VEGF levels,[2]; 0.5 or 3 mg/kg QD,more than 95%
same,Mean difference in human tumor VEGF (%) at Day 14,"[2]; Study #21, 3 mg/kg QD, 14 days",98%**
"CC(=O)O[C@H]1C(=O)[C@@]2(C)[C@H]([C@H](OC(=O)c3ccccc3)[C@]3(O)C[C@H](OC(=O)[C@H](O)[C@@H](NC(=O)c4ccccc4)c4ccccc4)C(C)=C1C3(C)C)[C@]1(OC(C)=O)CO[C@@H]1C[C@@H]2O [Paclitaxel, paclitaxel]",tumor growth,MCF-7p xenografts [3],transient cytoreduction and a tumor growth delay
same,Mean % Inhibition of Tumor Size vs Vehicle at Day 26,MCF-7p xenografts [3]; [8],78* %
same,Median Time to Tumor Size ≧1000 mm^3,MCF-7p xenografts [3]; [8],47 days
"CC/C(=C(\c1ccccc1)c1ccc(OCCN(C)C)cc1)c1ccccc1 [Tamoxifen, tamoxifen]",mice cured (%),MCF-7 xenografts; [9],70%
same,mice cured (number),MCF-7 xenografts; [9],7 of the 10
same,Mean % Inhibition of Tumor Size vs Vehicle at Day 42,MCF-7 xenografts; [10],84%
same,Proportion Cured,MCF-7 xenografts; [10],70%
same,tumor regression and growth delay,MCF-7 xenografts; combination = Compound #10 with tamoxifen,tumor regression and growth delay were observed
same,tumor growth,MCF-7p xenografts [4],only modestly delayed tumor growth
same,Mean % Inhibition of Tumor Size vs Vehicle at Day 26,MCF-7p xenografts [4]; [11],33* %
same,Median Time to Tumor Size ≧1000 mm^3,MCF-7p xenografts [4]; [11],24 days
COc1cccc2c1C(=O)c1c(O)c3c(c(O)c1C2=O)C[C@@](O)(C(=O)CO)C[C@@H]3O[C@H]1C[C@H](N)[C@H](O)[C@H](C)O1 [doxorubicin],BrdU staining of tumor cells (proportion of cells in S phase),HT1080 xenografts [5],decreased the percentage of tumor cells staining with BrdU
same,pathologic plasma human VEGF levels vs control,HT1080 xenografts [6],numerically lower than in control animals
O=C(Oc1ccc(Cl)cc1)N1CCc2c([nH]c3ccc(Cl)cc23)C1c1ccc(OCCN2CCOCC2)cc1 (centres unmarked) [drawing 535],% Cells In S-Phase,HT1080 cells,16.4%
N#Cc1ccc(C(c2ccc(C#N)cc2)n2cncn2)cc1 [letrozole],Mean % Inhibition of Tumor Size vs Vehicle at Day 42,[7]; [12],79%
same,Proportion Cured,[7]; [12],20%
same,Mean % Inhibition of Tumor Size vs Vehicle at Day 42,[7]; [13],72%
same,Proportion Cured,[7]; [13],10%
same,tumor growth,[7]; high-dose letrozole,tumor regression was observed
same,tumor growth,[7]; low-dose letrozole,tumor growth was prevented but tumor reduction was not observed
"NC(Cn1ccc(=O)c(O)c1)C(=O)O (centres unmarked) [mimosine, reference compound]",delay or prolongation of the cell cycle,"HT1080 cells; same tumor cells, data not shown",does not delay or prolong the cell cycle or reduce VEGF production
